Data from patent publication US12453707B2, “Vaginal films” (priority 2017, dated 2025).

Experiments:
[1] = X-ray diffraction solid state solubility of TFV in polymers; format: physicochemical; details: XRD of lyophilized polymer:TFV mass, pH 6-6.5
Procedure: X-ray diffraction (XRD) was used to study the solid state solubility of TFV in a series of polymers like HPMC-E5, HEC, and NaCMC-LV. TFV and polymers were dissolved together in milliQ water on a magnetic stirrer to achieve various polymer to TFV (P:T) ratios. pH was adjusted to 6-6.5 using sodium hydroxide equimolar to TFV. The solutions were then lyophilized using a Freezone 6 lyophilizer (Labconco, MO, USA). The powder obtained after lyophilization was scanned on a Philips X-ray diffractometer between 5-50° 2θ. A 37-minute scan was obtained. Similarly obtained XRD scans for lyophilized pure polymers and lyophilized TFV (pH 6-6.5) served as controls.

[2] = cited from earlier work

SMILES: C[C@H](Cn1cnc2c(N)ncnc21)OCP(=O)(O)O [TFV, 9-[9(R)-2-(phosphonomethoxy)propyl]adenine]
- P:T ratio at which HPMC-E5, HEC and NaCMC-LV were able to solubilize TFV [1]: ≥ 3
- pKa, phosphate groups (first value) [2]: 2.1
- pKa, phosphate groups (second value) [2]: 4.3
- pKa, primary amine group [2]: 7.3
